# Data from patent publication US8748370B2, “Peptide derivatives for treatment, prevention or alleviation of a condition associated with bone loss or low bone density or to inhibit osteoclast differentiation and stimulation” (Strongbone AB, priority 2009, dated 2014).
# Square brackets hold non-standard residues; d marks the D form. Peptide text beside a SMILES is read from it. * marks the point of attachment. Agmatine = N=C(N)NCCCCN*; Cbz = O=C(OCc1ccccc1)*; azaGly = NNC(=O)O; BrAc = O=C(CBr)*; ClAc = O=C(CCl)*
# T1: Papain (Carica papaya, UniProt P00784)
# T1 sequence (P00784 134-345): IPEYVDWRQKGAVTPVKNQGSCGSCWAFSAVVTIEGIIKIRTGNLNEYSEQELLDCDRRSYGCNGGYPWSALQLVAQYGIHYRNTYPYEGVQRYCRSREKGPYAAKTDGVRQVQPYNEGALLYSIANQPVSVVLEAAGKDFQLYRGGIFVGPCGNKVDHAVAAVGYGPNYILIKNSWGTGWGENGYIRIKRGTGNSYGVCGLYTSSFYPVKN
# T2: Cath K (Homo sapiens, UniProt P43235)
# T2 sequence (P43235 115-329): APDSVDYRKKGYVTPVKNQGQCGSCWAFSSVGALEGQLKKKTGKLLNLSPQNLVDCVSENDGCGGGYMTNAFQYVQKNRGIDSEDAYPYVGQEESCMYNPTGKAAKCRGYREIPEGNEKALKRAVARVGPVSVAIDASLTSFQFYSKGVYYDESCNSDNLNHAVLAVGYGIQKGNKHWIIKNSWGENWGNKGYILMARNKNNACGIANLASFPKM
# Legend:
# [1] = system: purified bone marrow macrophages; assay: Osteoclast formation in bone marrow macrophage cultures stimulated with M-CSF and RANKL (TRAP+ multinucleated osteoclasts); assay type: cell-based; details: for Osteoclast formation (100% = M-CSF + RANKL): purified bone marrow macrophages stimulated with M-CSF and RANKL, trap+ multinucleated osteoclasts
# Procedure: Highly purified BMMs were isolated according to Takeshita et al. (2000).
# For osteoclastogenesis experiments, BMMs were seeded either on 0.8 cm^2 glass chamber slides or 0.32 cm^2 96-well plates at a density of 10^4 cells/cm^2 in a-MEM/10% FBS containing either 100 ng/ml M-CSF (controls) or 100 ng/ml M-CSF C50 ng/ml RANKL, with and without test compounds. After 4-5 days, with a change of medium after 3 days, the cultures were harvested and the cells fixed with acetone in citrate buffer/3% formaldehyde and subsequently stained for TRAP. The TRAP-positive cells with three or more nuclei were considered osteoclasts, and the number of multinucleated osteoclasts was counted (TRAP^+-MuOCL). […] Osteoclast formation caused by M-CSF and RANKL was abolished by OPG
# [2] = target: T1, Papain; assay: Papain inhibition (Ki); assay type: biochemical
# [3] = target: T2, Cath K; assay: Cathepsin K inhibition (Ki); assay type: biochemical
# [4] = target: Cath B (Homo sapiens, UniProt P07858); assay: Cathepsin B inhibition (Ki); assay type: biochemical
# [5] = system: spleen cells; assay: Osteoclast formation in spleen cell cultures (TRAP+ multinucleated osteoclasts); assay type: cell-based, mice; details: for Osteoclast formation in the presence of the substance: without M-CSF/RANKL stimulation
# Procedure: Cells were obtained from spleens of 5- to 9-week-old mice. The spleens were dissected free of adhering tissues, and cells were released by rubbing the spleens against the bottom of a Petri dish, in which grooves had been made by a scalpel. Erythrocytes were lysed in red blood cell lysis buffer (0.16 MNH4Cl, 0.17 M Tris, pH7.65) and the remaining cells were seeded, at a cell density of 10^6 cells/cm2, on plastic coverslips placed in 24-well plates. The cells were cultured in 0.5 ml a-minimal essential medium (a-MEM) supplemented with 10% fetal bovine serum (FBS), L-glutamine (0.7 mM), 100 U/ml benzylpenicillin, […] and 100 […] sulphate. Cells were allowed to settle overnight in complete medium and thereafter the medium was changed and the experiment started. Osteoclast precursor cells were induced to proliferate and differentiate by the addition of M-CSF (25 ng/ml) and RANKL (100 ng/ml). To study the effect of the compounds on osteoclastogenesis, cells were grown in medium containing compounds at different concentrations, together with M-CSF and RANKL. Cells cultured in complete medium without M-CSF and RANKL were included in all experiments as a control. Medium was changed after 3 days. After 1-6 days, the cells were washed three times with PBS (pH 7.35) and fixed with acetone in citrate buffer/3% formaldehyde solution. Cells were then stained for tartrate-resistant acid phosphatase (TRAP) activity using the SigmaDiagnostics Acid Phosphatase Leukocyte staining kit and by following the manufacturer's instruction. Multinucleated (no. of nuclei >3), TRAP-positive cells were counted as osteoclasts (TRAPC-MuOCL).
Molecule,Osteoclast formation (100% = M-CSF + RANKL) ([1]; BMM #27 + #29 + #30 + #34),Ki [2],Ki [3],Ki [4],also measured
"CC(C)CC(NC(=O)C(NC(=O)C1OC1C(=O)c1ccccc1)C(C)C)C(=O)NCCCCNC(=N)N (single isomer, unassigned) [A-47]",0%,16 nM,99 nM,0.3 nM,
"CC(C)CC(NC(=O)C(NC(=O)C1OC1C(=O)c1ccccc1)C(C)C)C(=O)NCCCCNC(=N)N (single isomer, unassigned) [A-50]",2%,68 nM,63 nM,55 nM,
"CC(C)CC(NC(=O)C(NC(=O)CCl)C(C)C)C(=O)NCCCCNC(=N)N (stereo not drawn) [A-11, ClAc—Val-Leu-Agm] (ClAc-Val-Leu-Agmatine; configuration not given here)",1%,93 nM,14 nM,360 nM,
"CC(C)CC(NC(=O)C(NC(=O)CBr)C(C)C)C(=O)NCCCCNC(=N)N (stereo not drawn) [A-12, BrAc—Val-Leu-Agm] (BrAc-Val-Leu-Agmatine; configuration not given here)",2%,94 nM,13 nM,1000 nM,
"CC(C)C[C@H](NC(=O)[C@@H](NC(=O)[C@H](Br)Cc1ccccc1)C(C)C)C(=O)NCCCCNC(=N)N [A-16, BrPpr-Val-Leu-Agm]",16%,340 nM,,,Cath K Ki [3]: inactive; Cath B Ki [4]: inactive
"CC(C)CC(NC(=O)C(CCCNC(=N)N)NC(=O)OCc1ccccc1)C(=O)NC(CNC(=O)/C=C/c1ccccc1)C(C)C (stereo not drawn) [A-20, Z-Arg-Leu-NH—CH(iPr)—CH2—NH←Cin]",0%,,,,Papain Ki [2]: Inactive
"CC(C)CC(NC(=O)C(NC(=O)/C=C/S(=O)(=O)Cc1ccccc1)C(C)C)C(=O)NCCCCNC(=N)N (stereo not drawn) [A-25, Bzsa-Val-Leu-Agm]",1%,,42.2 nM,8.1 nM,Papain Ki [2]: Inactive
"CC(C)CC(NC(=O)C(NC(=O)/C=C/C(=O)c1ccccc1)C(C)C)C(=O)NCCCCNC(=N)N (stereo not drawn) [A-33, Bzac-Val-Leu-Agm]",0%,46 nM,24 nM,2 nM,
"COC(=O)C1OC1C(=O)NC(C(=O)NC(CC(C)C)C(=O)NCCCCNC(=N)N)C(C)C (stereo not drawn) [A-42, MeO-Eps-Val-Leu-Agm]",0%,161 nM,,14 nM,Cath K Ki [3]: inactive
"CC(C)CC(NC(=O)C(CCCNC(=N)N)NC(=O)OCc1ccccc1)C(=O)NC(CNC(=O)/C=C/c1ccncc1)C(C)C (stereo not drawn) [A-49, Z-Arg-Leu-NH—CH(iPr)—CH2—NH←4-Pac]",0.2%,,,,
CC(C)CC(NC(=O)CCCCNC(=N)N)C(=O)NC(CNC(=O)/C=C/S(=O)(=O)Cc1ccccc1)C(C)C (stereo not drawn) [A-54],1%,1000 nM,14 nM,228 nM,
"CC(C)CC(NC(=O)C(CCCNC(=N)N)NC(=O)OCc1ccccc1)C(=O)NC(C(=O)NC(Cc1ccccc1)C(N)=O)C(C)C (stereo not drawn) [A-59, Ppa-Arg-Leu-Val-Phe-NH2] (Cbz-RLVF-NH2; configuration not given here)",0%,,,,
"CC(C)CC(NC(=O)CCCCNC(=N)N)C(=O)NC(CNC(=O)C(Cc1ccccc1)NC(=O)Cc1cc(=O)oc2cc(O)ccc12)C(C)C [A-107, (2S)-2-[N-(5-guanidinepentanoyl)-L-leucylamino]-1-[N-(7-hydroxy-4-coumarinylacetyl-L-phenylalanylamino)-3-methylbutane]",,,,,Osteoclast formation (100% = M-CSF + RANKL) ([1]; BMM #141 and #142): 0%
"CC(C)CC(NC(=O)/C=C/c1cccnc1)C(=O)NC(CC(C)C)C(=O)NCCCCNC(=N)N (stereo not drawn) [A-127, 3 Pac-DLeu-Leu-Agm]",,,,,Osteoclast formation (100% = M-CSF + RANKL) ([1]; BMM #141 and #142): 16%
"CC(C)CC(NC(=O)Cc1cc(=O)oc2cc(O)ccc12)C(=O)NC(CC(C)C)C(=O)NCCCCNC(=N)N [A-128, N-amidino-4-(7-hydroxy-4-coumarinacetyl-D-leucyl-L-leucylamino)butylamine]",,,,,Osteoclast formation (100% = M-CSF + RANKL) ([1]; BMM #141 and #142): 4%
"C=C1/C(=C\C=C2/CCC[C@]3(C)[C@@H]([C@H](C)CCCC(C)(C)O)CC[C@@H]23)C[C@@H](O)C[C@@H]1O [D3, 1.25(OH)2-vitamin D3, reference compound]",,,,,Osteoclast formation in the presence of the substance ([1]; BMM cultures): Osteoclasts were not formed; Osteoclast formation in the presence of the substance [5]: No osteoclasts were formed
"CCC(C)C(NC(=O)/C=C/S(=O)(=O)Cc1ccccc1)C(=O)N1CCCC1C(=O)O (stereo not drawn) [M-1, Bzsa-Ile-Pro-OH]",14%,23 nM,160 nM,3 nM,
"CCC(C)C(NC(=O)NNC(=O)C(CCCNC(=N)N)NC(=O)C(CC(C)C)NC(=O)C(CCCNC(=N)N)NC(=O)OCc1ccccc1)C(=O)NC(C(=O)OC)C(C)C (stereo not drawn) [Z-RLR, Z-Arg-Leu-Arg-Agly-Ile-Val-OMe] (Cbz-RLR[azaGly]IV-OMe; configuration not given here)",0%,9 nM,1 nM,,
"osteoprotegerin (protein, UniProt O00300 22-401, looked up, osteoprotegerin (OPG), abolishes M-CSF/RANKL-stimulated osteoclast formation) Tumor necrosis factor …: ETFPPKYLHYDEETSHQLLCDKCPPGTYLKQHCTAKWKTVCAPCPDHYYTDSWHTSDECLYCSPVCKELQYVKQECNRTHNRVCECKEGRYLEIEFCLKHRSCPPGFGVVQAGTPERNTVCKRCPDGFFSNETSSKAPCRKHTNCSVFGLLLTQKGNATHDNICSGNSESTQKCGIDVTLCEEAFFRFAVPTKFTPNWLSVLVDNLPGTKVNAESVERIKRQHSSQEQTFQLLKLWKHQNKDQDIVKKIIQDIDLCENSVQRHIGHANLTFEQLRSLMESLPGKKVGAEDIEKTIKACKPSDQILKLLSLWRIKNGDQDTLKGLMHALKHSKTYHFPKTVTQSLKKTIRFLHSFTMYKLYQKLFLEMIGNQVQSVKISCL",,,,,"Effect on osteoclast formation caused by M-CSF and RANKL ([1]; BMM cultures, M-CSF and RANKL): abolished; Effect on stimulation of osteoclast formation caused by M-CSF and RANKL ([5]; M-CSF and RANKL): abolished"
"PTH (protein, UniProt P01270 32-115, looked up, Parathyroid hormone, PTH, used to show the lack of stromal cells in the cultures) Parathyroid hormone: SVSEIQLMHNLGKHLNSMERVEWLRKKLQDVHNFVALGAPLAPRDAGSQRPRKKEDNVLVESHEKSLGEADKADVNVLTKAKSQ",,,,,Osteoclast formation in the presence of the substance ([1]; BMM cultures): Osteoclasts were not formed; Osteoclast formation in the presence of the substance [5]: No osteoclasts were formed
"Cystatin C (protein, UniProt P01034 27-146, looked up) Cystatin-C: SSPGKPPRLVGGPMDASVEEEGVRRALDFAVGEYNKASNDMYHSRALQVVRARKQIVAGVNYFLDVELGRTTCTKTQPNLDNCPFHDQPHLKRKAFCSFQIYAVPWQGTMTLSKSTCQDA",,,,,Osteoclast formation (100% = M-CSF + RANKL) ([1]; BMM #141 and #142): 0%
